Experimental data reported in PMC7270110, “Labeled oxytocin administered via the intranasal route reaches the brain in rhesus macaques” (Nature Communications, 2020).

Tests used:
[1] = 60 min, previous study, cited from earlier work
Procedure: This study has several limitations. The limit of quantification (100 pg/ml) and between subject variability for d5OT precluded comparisons of CSF concentrations of d5OT across routes of administration (IN vs. IV), or across time (60 vs. 120 min), for a given route. […] For example, mean plasma concentration of d5OT at 60 min in the IV condition was 1992 ± 476 pg/ml in the present study and 3306 ± 1162 pg/ml in the previous st ...

[2] = nonhuman primate, cited from earlier work
Procedure: […] For IV administration, 1 ml was administered via a peripheral IV catheter. For IN administration, an IN Mucosal Atomization Device [MAD, Teleflex Medical, Research Triangle Park, NC] was used. This same device was used in our previous nonhuman primate study. […] Of not ...

[3] = Plasma concentration of endogenous d0OT by LC-MS/MS; format: in vivo, rhesus macaques (Macaca mulatta); conditions: LLOQ 10 pg/ml, MDL 4 pg/ml
Procedure: The six monkeys were dosed once a week, for 4 consecutive weeks, with each DOSE–ROUTE condition of d5OT (40 IU IN, 40 IU IV, 80 IU IN, or 80 IU IV). Each DOSE–ROUTE condition was assigned using a Latin square randomization (Table 4). Sessions were separated by at least 6 days. During each session, CSF (750 µl) and blood (5 ml) samples were drawn immediately prior to (T = 0) and following (T = 60 and 120 min) each administration of d5OT.
Chemicals: An unlabeled standard for d0OT and deuterated standard for d5OT were purchased from Sigma-Aldrich (St. Louis, MO); d10OT was purchased for use as an internal standard through a custom order from Cayman Chemical (Ann Arbor, MI). All other reagents were commercially available, and we purchased LC or MS grade chemicals when available. Plasma and CSF sample preparation for LC–MS/MS analysis. […]
Solid-phase extraction (SPE) columns (Strata-X-Drug B, 60 mg/6 ml, Phenomenex, Torrance, CA) were conditioned prior to use by adding 2 ml of methanol, followed by 2 ml of water, and 2 ml of 0.2 M ammonium acetate (pH 3.0) in water; each was allowed to flow through by gravity before the next was added. […] After a 15 min incubation at 4 °C, plates were filtered into microtiter plates (Shimadzu, Kyoto, Japan) using a positive pressure manifold (8 min at 5 psi, followed by 15 s at 15 psi; Biotage, Uppsala, Sweden), and analyzed. […]

[4] = humans; 24 IU OT (not labelled) intranasally; 75 minutes post-administration; radioimmunoassay; ref Striepens et al., Sci Rep 2013; cited from earlier work
Procedure: page 8: 4. It is surprising that no CSF d5 OT was detected at 60 or 120 minutes in CSF after IN administration. […] In our previous study (Lee et al., Mol Psychiatry 2018), after IN administration, CSF d5OT concentration at 60 minutes was quantified in 4 monkeys as follows: 11.28, 15.99, 67.65 and 221.62 pg/ml. In this previous study, the limit of quantification (LOQ) for d5OT was 10 pg/ml. The LOQ of d5OT in the present study was 100 pg/ml and the method dete ...

In the case of `CC[C@H](C)[C@@H]1NC(=O)[C@H](Cc2ccc(O)cc2)NC(=O)[C@@H](N)CSSC[C@@H](C(=O)N2CCC[C@H]2C(=O)N[C@@H](CC(C)C)C(=O)NCC(N)=O)NC(=O)[C@H](CC(N)=O)NC(=O)[C@H](CCC(N)=O)NC1=O` [d5OT], the “Plasma d5OT” value ([1]; 80 IU IN condition) is listed as 615 ± 474 pg/mL and the “Mean plasma concentration of d5OT” value ([1]; IV condition) is listed as 3.306 ± 1.162 ng/mL.
For `CC[C@H](C)[C@@H]1NC(=O)[C@H](Cc2ccc(O)cc2)NC(=O)[C@@H](N)CSSC[C@@H](C(=O)N2CCC[C@H]2C(=O)N[C@@H](CC(C)C)C(=O)NCC(N)=O)NC(=O)[C@H](CC(N)=O)NC(=O)[C@H](CCC(N)=O)NC1=O` [OT, oxytocin], the “Concentration of CSF OT” value ([2]; IN administration of unlabeled OT with a different IN device) is listed as “no increased concentration”, the “CSF OT concentrations” value ([2]; OT 48 IU, MAD spray and nebulizer) is listed as “significant elevations” and the d0OT in plasma [3] is listed as “not detected”. For the same compound, the “CSF OT concentration” value [4] was “approximately 30 pg/ml”.
